Earlier results as cited in patent US6963011B2, “N-(2-phenyl-3-aminopropyl)naphthamides” (Astrazeneca AB, priority 2000, dated 2005).
Like-named read-outs stand apart in the source and are kept apart here. Non-standard residues stand in square brackets, D forms with d. Residues, ends and D or L forms follow the SMILES beside them. *: point of attachment. Cyclohexanecarbonyl = O=C(C1CCCCC1)*

Assays:
[1] = Walsh et al., Psychopharmacology 121:186-191, 1995
[2] = not given; remark: listed apart in the source
[3] = not given; remark: listed apart in the source
[4] = Vassout et al., Neuropeptides 26/S1:38, 1994; only at 30 mg/kg bid
[5] = Walsh et al., Psychopharmacology 121:186-191, 1995
[6] = Teixeira et al., Eur J Pharmacol 311(1):7-14, 1996
[7] = Vassout et al., Neuropeptides 26/S1:38, 1994
[8] = Stratton et al., Eur. J. Pharmacol. 250:R11-12, 1993

Compound	Outcome, Marmoset human intruder [1]	Outcome, Light-dark box [5]	Outcome, Elevated plus-maze [2, 6]	Outcome, Light-dark box [8]	also measured
COC1(C[S@@+]([O-])c2ccccc2)CCN(CCc2c[nH]c3ccc(F)cc23)CC1 [GR159897]	anxiolytic	anxiolytic	–	–	–
CN(Cc1ccccc1)C(=O)[C@H](Cc1ccc2ccccc2c1)NC(=O)[C@@H]1C[C@@H](O)CN1C(=O)c1cn(C)c2ccccc12 [FK888]	–	–	anxiolytic	–	–
Cc1cc(C)cc(C(=O)N2CC[C@H](NCc3ccnc4ccccc34)C[C@H]2Cc2ccccc2)c1 [CGP 49823]	–	–	–	–	Outcome, Social interaction ([3]; File, Pharm Bio B 58(3):747-752, 1997): anxiolytic; Outcome, Social interaction test [3, 7]: anxiolytic; Outcome, Forced swim test (depression model) [4]: antidepressant; Outcome, Elevated plus-maze [2, 7]: inactive
CC(=O)NC1(c2ccccc2)CCN(CC[C@H](CN(C)C(=O)c2ccccc2)c2ccc(Cl)c(Cl)c2)CC1 [SR48968]	anxiolytic	anxiolytic	anxiolytic	anxiolytic	–
C[C@H](NC(=O)CNC(=O)C1CCCCC1)C(=O)N[C@H](Cc1c[nH]c2ccccc12)C(=O)N[C@@H](Cc1ccccc1)C(=O)N(C)C [GR100679] (Cyclohexanecarbonyl-GA[dW]F-NMe2)	–	–	–	anxiolytic	–
